Measured values published in ChEMBL document CHEMBL1142425, “Bromophenols from the marine red alga Polysiphonia urceolata with DPPH radical scavenging activity” (J Nat Prod, 2008).

Assay: DPPH radical scavenging activity
Assay type: functional

Row | SMILES | IC50 [µM]
1 | CO[C@@H]1Oc2c(O)c(Br)cc3c2-c2c1cc(Br)c(O)c2O[C@H]3OC [URCEOLATOL] | 15.1
2 | Oc1cc2c(c(Br)c1O)COCc1cc(O)c(O)c(Br)c1-2 | 8.1
3 | Cc1cc(C(C)(C)C)c(O)c(C(C)(C)C)c1 [BUTYLATED HYDROXYTOLUENE] | 83.8
4 | Oc1cc2c(cc1O)-c1c(cc(Br)c(O)c1O)CC2 | 6.8
5 | Oc1cc2c(c(Br)c1O)-c1c(cc(Br)c(O)c1O)CC2 | 6.1

Next, values leading:

Row | IC50 [µM] | SMILES
6 | 20.3 | O=Cc1cc(O)c(O)c(Br)c1
7 | 35.8 | O=Cc1cc(Br)c(O)c(Br)c1
